Measured values from patent EP0590919A1, “Therapeutic agents for parkinson's disease” (KYOWA HAKKO KOGYO CO., LTD., priority 1992, dated 1994).

What was measured:
dd-strain male mice = experiment: Acute toxicity test (minimum lethal dose, oral); format: in vivo; settings: oral administration, three mice per group, mortality seven days after administration
Procedure: Test compounds were orally administered to groups of dd-strain male mice weighing 20 ± 1 g, each group consisting of three mice. Seven days after the administration, minimum lethal dose (MLD) of each compound was determined by observing the mortality.

A₂ receptor = target: T1, A₂ receptor (Rattus norvegicus, UniProt P30543); experiment: Adenosine A₂ receptor binding test (³H-NECA binding); settings: ³H-NECA binding, rat corpus striatum, read-out: Inhibition (%) A₂ Receptor; for inhibition at 100 µM: 10⁻⁴M; for inhibition at 10 µM: 10⁻⁵M; for inhibition at 1 µM: 10⁻⁶M; for inhibition at 0.1 µM: 10⁻⁷M
T1 construct: from tissue; host or cells: rat corpus striatum membrane preparation
Procedure: The similar procedure as in the above-described adenosine A₁ receptor binding test was repeated using rat corpus striatum to obtain the final precipitate of the tissue thereof. The precipitate was suspended in 50 mM Tris HCl buffer containing 10 mM magnesium chloride and 0.02 unit/mg tissue of adenosine deaminase (manufactured by Sigma Co.) to give a tissue concentration of 5 mg (wet weight)/ml.
The mixture solution was allowed to stand at 25°C for 120 minutes and then treated in the same manner as in the adenosine A₁ receptor binding test to determine the radioactivity bound to the A₂ receptors.
The inhibition rate of the test compound against the binding of A₂ receptor (³H-NECA binding) was calculated by the following equation: [formula] [Notes] • 1.

T1 sequence (P30543 whole entry): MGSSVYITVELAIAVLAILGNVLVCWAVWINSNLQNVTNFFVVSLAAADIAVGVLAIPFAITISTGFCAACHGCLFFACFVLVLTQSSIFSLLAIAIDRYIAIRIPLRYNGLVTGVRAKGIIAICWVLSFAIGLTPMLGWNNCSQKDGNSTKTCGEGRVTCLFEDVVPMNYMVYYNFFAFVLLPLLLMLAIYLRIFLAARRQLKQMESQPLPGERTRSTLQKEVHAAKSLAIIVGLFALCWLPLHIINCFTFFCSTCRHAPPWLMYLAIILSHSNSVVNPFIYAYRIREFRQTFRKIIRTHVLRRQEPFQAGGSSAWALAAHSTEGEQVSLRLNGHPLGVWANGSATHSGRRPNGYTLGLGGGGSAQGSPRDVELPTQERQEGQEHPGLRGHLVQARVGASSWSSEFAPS

Structure (SMILES) | MLD (dd-strain male mice) | inhibition at 100 µM (A₂ receptor) | inhibition at 10 µM (A₂ receptor) | inhibition at 1 µM (A₂ receptor) | inhibition at 0.1 µM (A₂ receptor)
CCn1c(=O)c2c(nc(/C=C/c3cc(OC)c(OC)cc3Br)n2C)n(CC)c1=O [Compound 60, (E)-8-(2-Bromo-4,5-dimethoxystyryl)-1,3-diethyl-7-methylxanthine] | > 100 mg/kg | 84% | 75% | – | –
CCOc1ccc(/C=C/c2nc3c([nH]2)c(=O)n(CC)c(=O)n3CC)cc1 [Compound 35, (E)-8-(4-Ethoxystyryl)-1,3-diethylxanthine] | > 100 mg/kg | – | – | 71% | 54%
CCn1c(=O)c2[nH]c(/C=C/c3ccc(O)cc3)nc2n(CC)c1=O [Compound 121, (E)-1,3-Diethyl-8-(4-hydroxystyryl)xanthine] | > 100 mg/kg | – | – | – | –
CCn1c(=O)c2[nH]c(/C=C/c3ccc(OC)c(Br)c3)nc2n(CC)c1=O [Compound 55, (E)-8-(3-Bromo-4-methoxystyryl)-1,3-diethylxanthine] | > 100 mg/kg | 81% | 77% | 65% | 56%
COc1ccc(/C=C/c2nc3c([nH]2)c(=O)n(C)c(=O)n3C)c(Cl)c1OC [Compound 51, (E)-8-(2-Chloro-3,4-dimethoxystyryl)theophylline] | > 100 mg/kg | 91% | 88% | – | –
COc1cc(C)c(/C=C/c2nc3c([nH]2)c(=O)n(C)c(=O)n3C)cc1C [Compound 29, (E)-8-(4-Methoxy-2,5-dimethylstyryl)theophylline] | > 100 mg/kg | – | – | – | –
CCn1c(=O)c2c(nc(/C=C/c3ccc(OCC(=O)O)cc3)n2C)n(CC)c1=O [Compound 118, (E)-8-(4-Carboxymethoxystyryl)-1,3-diethyl-7-methylxanthine] | > 100 mg/kg | – | – | – | –
CCn1c(=O)c2[nH]c(/C=C/c3ccc(F)c(Cl)c3)nc2n(CC)c1=O [Compound 104, (E)-8-(3-Chloro-4-fluorostyryl)-1,3-diethylxanthine] | > 100 mg/kg | – | – | – | –
CCn1c(=O)c2[nH]c(/C=C/c3cccc(Oc4ccccc4)c3)nc2n(CC)c1=O [Compound 119, (E)-1,3-Diethyl-8-(3-phenoxystyryl)xanthine] | > 100 mg/kg | – | – | – | –
CCn1c(=O)c2[nH]c(/C=C/c3cc(C(F)(F)F)cc(C(F)(F)F)c3)nc2n(CC)c1=O [Compound 85, (E)-8-[3,5-Bis(trifluoromethyl)styryl]-1,3-diethylxanthine] | > 100 mg/kg | – | – | – | –
CCOC(=O)COc1ccc(/C=C/c2nc3c(c(=O)n(CC)c(=O)n3CC)n2C)cc1 [Compound 117, (E)-8-(4-Ethoxycarbonylmethoxystyryl)-1,3-diethyl-7-methylxanthine] | > 100 mg/kg | – | – | – | –
CCn1c(=O)c2[nH]c(/C=C/c3ccccc3OC)nc2n(CC)c1=O [Compound 45, (E)-1,3-Diethyl-8-(2-methoxystyryl)xanthine] | > 100 mg/kg | – | – | – | –
CCn1c(=O)c2c(nc(/C=C/c3ccccc3OC)n2C)n(CC)c1=O [Compound 46, (E)-1,3-Diethyl-8-(2-methoxystyryl)-7-methylxanthine] | > 100 mg/kg | – | – | – | –
CCn1c(=O)c2c(nc(/C=C/c3ccc(O)c(C)c3C)n2C)n(CC)c1=O [Compound 122, (E)-1,3-Diethyl-8-(4-hydroxy-2,3-dimethylstyryl)-7-methylxanthine] | > 100 mg/kg | – | – | – | –
COc1cccc(/C=C/c2nc3c(=O)n(C)c(=O)n(C)c3[nH]2)c1OC [Compound 25, (E)-8-(2,3-Dimethoxystyryl)theophylline] | > 100 mg/kg | 70% | 76% | – | –
COc1ccc(/C=C/c2nc3c([nH]2)c(=O)n(C)c(=O)n3C)cc1Br [Compound 57, (E)-8-(3-Bromo-4-methoxystyryl)theophylline] | > 100 mg/kg | – | – | – | –
CCn1c(=O)c2[nH]c(/C=C/c3ccc(C(F)(F)F)cc3)nc2n(CC)c1=O [Compound 73, (E)-1,3-Diethyl-8-(4-trifluoromethylstyryl)xanthine] | > 100 mg/kg | – | – | – | –
CCn1c(=O)c2[nH]c(/C=C/c3cccc(Cl)c3)nc2n(CC)c1=O [Compound 69, (E)-8-(3-Chlorostyryl)-1,3-diethylxanthine] | > 100 mg/kg | – | – | – | –
COc1ccc(/C=C/c2nc3c(c(=O)n(C)c(=O)n3C)n2C)cc1Br [Compound 58, (E)-8-(3-Bromo-4-methoxystyryl)caffeine] | > 300 mg/kg | 78% | 84% | – | –
COc1ccc(/C=C/c2nc3c(c(=O)n(C)c(=O)n3C)n2C)c(OC)c1 [Compound 28, (E)-8-(2,4-Dimethoxystyryl)caffeine] | > 300 mg/kg | 99% | 86% | 80% | 46%

Structure (SMILES) | MLD (dd-strain male mice) | inhibition at 100 µM (A₂ receptor) | inhibition at 10 µM (A₂ receptor) | inhibition at 1 µM (A₂ receptor) | inhibition at 0.1 µM (A₂ receptor)
CCn1c(=O)c2[nH]c(/C=C/c3cc(C)ccc3C)nc2n(CC)c1=O [Compound 33, (E)-8-(2,5-Dimethylstyryl)-1,3-diethylxanthine] | > 300 mg/kg | 92% | 93% | – | –
CCn1c(=O)c2c(nc(/C=C/c3cc(F)cc(F)c3)n2C)n(CC)c1=O [Compound 88, (E)-8-(3,5-Difluorostyryl)-1,3-diethyl-7-methylxanthine] | > 100 mg/kg | – | – | – | –
CCn1c(=O)c2[nH]c(/C(C)=C/c3ccccc3)nc2n(CC)c1=O [Compound 71, (E)-1,3-Diethyl-8-(α-methylstyryl)xanthine] | > 100 mg/kg | – | – | – | –
COc1cccc(/C=C/c2nc3c(c(=O)n(C)c(=O)n3C)n2C)c1OC [Compound 26, (E)-8-(2,3-Dimethoxystyryl)caffeine] | > 300 mg/kg | 79% | 75% | 59% | 27%
CCn1c(=O)c2[nH]c(/C=C/c3cc(OC)c(OC)cc3[N+](=O)[O-])nc2n(CC)c1=O [Compound 61, (E)-8-(4,5-Dimethoxy-2-nitrostyryl)-1,3-diethylxanthine] | > 100 mg/kg | – | – | – | –
CCn1c(=O)c2c(nc(/C=C/c3cccc(F)c3)n2C)n(CC)c1=O [Compound 66, (E)-1,3-Diethyl-8-(3-fluorostyryl)-7-methylxanthine] | > 300 mg/kg | – | – | 93% | 78%
CCn1c(=O)c2c(nc(/C=C/c3ccc(OC)c(O)c3)n2C)n(CC)c1=O [Compound 111, (E)-1,3-Diethyl-8-(3-hydroxy-4-methoxystyryl)-7-methylxanthine] | > 100 mg/kg | – | – | – | –
CCn1c(=O)c2[nH]c(/C=C/c3cccc(OC)c3OC)nc2n(CC)c1=O [Compound 3, (E)-8-(2,3-Dimethoxystyryl)-1,3-diethylxanthine] | > 300 mg/kg | – | – | – | –
CCn1c(=O)c2[nH]c(/C=C/c3cccc(F)c3)nc2n(CC)c1=O [Compound 65, (E)-1,3-Diethyl-8-(3-fluorostyryl)xanthine] | > 100 mg/kg | – | – | 64% | 64%
CCn1c(=O)c2[nH]c(/C=C/c3ccc(OC)cc3OC)nc2n(CC)c1=O [Compound 5, (E)-8-(2,4-Dimethoxystyryl)-1,3-diethylxanthine] | > 100 mg/kg | – | – | – | –
CCn1c(=O)c2[nH]c(/C=C/c3cc(OC)c(OC)cc3Br)nc2n(CC)c1=O [Compound 59, (E)-8-(2-Bromo-4,5-dimethoxystyryl)-1,3-diethylxanthine] | > 100 mg/kg | – | – | – | –
CCn1c(=O)c2c(nc(/C(C)=C/c3ccccc3)n2C)n(CC)c1=O [Compound 72, (E)-1,3-Diethyl-7-methyl-8-(α-methylstyryl)xanthine] | > 300 mg/kg | – | – | – | –
CCn1c(=O)c2[nH]c(/C(F)=C\c3ccccc3)nc2n(CC)c1=O [Compound 75, (E)-1,3-Diethyl-8-(α-fluorostyryl)xanthine] | > 100 mg/kg | – | – | – | –
CCn1c(=O)c2[nH]c(/C=C/c3cc(C)c(OC)cc3C)nc2n(CC)c1=O [Compound 11, (E)-1,3-Diethyl-8-(4-methoxy-2,5-dimethylstyryl)xanthine] | > 300 mg/kg | – | – | – | –
CCn1c(=O)c2[nH]c(/C=C/c3ccc(OC)c(OC)c3Cl)nc2n(CC)c1=O [Compound 49, (E)-8-(2-Chloro-3,4-dimethoxystyryl)-1,3-diethylxanthine] | > 100 mg/kg | 112% | 108% | 76% | 73%
CCn1c(=O)c2[nH]c(/C=C/c3ccc(-c4ccccc4)cc3)nc2n(CC)c1=O [Compound 100, (E)-1,3-Diethyl-8-(4-phenylstyryl)xanthine] | > 100 mg/kg | – | – | – | –
CCn1c(=O)c2c(nc(/C=C/c3cc(OC)c(OC)cc3[N+](=O)[O-])n2C)n(CC)c1=O [Compound 62, (E)-8-(4,5-Dimethoxy-2-nitrostyryl)-1,3-diethyl-7-methylxanthine] | > 300 mg/kg | – | – | – | –
CCn1c(=O)c2[nH]c(/C=C/c3ccc(F)c(F)c3)nc2n(CC)c1=O [Compound 53, (E)-8-(3,4-Difluorostyryl)-1,3-diethylxanthine] | > 300 mg/kg | – | – | – | –
COc1cc(C)c(/C=C/c2nc3c(c(=O)n(C)c(=O)n3C)n2C)cc1C [Compound 30, (E)-8-(4-Methoxy-2,5-dimethylstyryl)caffeine] | > 100 mg/kg | – | – | – | –
CCn1c(=O)c2c(nc(/C=C/c3ccc(OCCCCN)cc3)n2C)n(CC)c1=O [Compound 116, (E)-8-[4-(4-Aminobutoxy)styryl]-1,3-diethyl-7-methylxanthine] | > 100 mg/kg | – | – | – | –
